Drawing on patent publication US20250171438A1 (Agios Pharmaceuticals, Inc., priority 2022, published 2025), this text covers AC50 for 37 compounds.

Like-named read-outs stand apart in the source and are kept apart here. Bounds are passed on as bounds.

The target in this experiment is T1, human PAH with the R408W mutation (Homo sapiens, UniProt P00439, R408W).
T1 construct: expressed in transfected cells
T1 sequence (P00439 1-452 R408W): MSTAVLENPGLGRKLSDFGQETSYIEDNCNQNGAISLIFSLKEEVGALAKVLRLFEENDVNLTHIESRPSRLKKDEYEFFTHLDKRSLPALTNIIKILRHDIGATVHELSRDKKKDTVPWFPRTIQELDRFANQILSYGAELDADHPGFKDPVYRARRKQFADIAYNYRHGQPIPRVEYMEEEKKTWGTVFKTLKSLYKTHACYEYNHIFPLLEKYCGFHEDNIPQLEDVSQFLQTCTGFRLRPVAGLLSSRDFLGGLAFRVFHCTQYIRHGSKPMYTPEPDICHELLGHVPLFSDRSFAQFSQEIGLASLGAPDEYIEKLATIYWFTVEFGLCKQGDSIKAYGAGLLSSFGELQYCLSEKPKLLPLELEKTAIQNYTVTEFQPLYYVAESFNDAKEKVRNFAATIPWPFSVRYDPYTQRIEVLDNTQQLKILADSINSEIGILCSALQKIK
Put plainly: Cell Based Phenylalanine Flux Assay. To be noted: A375 cells expressing human R408W PAH, 13C-Tyrosine by LC-MS, average where tested multiple times, read-out: AC50.

As a reminder, the AC50 is the concentration at which the activity in the assay is half-maximal. As for `Cn1cc(-c2ncc(C(=O)N3CCc4[nH]cnc4[C@@H]3c3nc4ccccc4s3)o2)cn1` [Example 1343, (R)-(4-(benzo[d]thiazol-2-yl)-6,7-dihydro-1H-imidazo[4,5-c]pyridin-5(4H)-yl)(2-(1-methyl-1H-pyrazol-4-yl)oxazol-5-yl)methanone], the AC50 (24 hrs compound incubation) was in the range of 1000 to 5000 nM.
With `O=C(c1oc(C2(O)CC2)nc1C(F)(F)F)N1CCc2[nH]cnc2[C@@H]1c1nc2c(F)cccc2s1` [Example 2186, (R)-(4-(4-fluorobenzo[d]thiazol-2-yl)-1,4,6,7-tetrahydro-5H-imidazo[4,5-c]pyridin-5-yl)(2-(1-hydroxycyclopropyl)-4-(trifluoromethyl)oxazol-5-yl)methanone], under “24 hrs compound incubation”, the AC50 fell in the range of 1000 to 5000 nM.
Turning to `O=C(c1cncs1)N1CCc2[nH]cnc2[C@H]1c1nc2ccccc2[nH]1` [Example 914, (S)-(4-(1H-benzo[d]imidazol-2-yl)-6,7-dihydro-1H-imidazo[4,5-c]pyridin-5(4H)-yl)(thiazol-5-yl)methanone], for the setting “24 hrs compound incubation”, the AC50 was in the range of 500 to 1000 nM.
For the compound `O=C(N1CCC1)N1CCc2[nH]cnc2[C@H]1c1nc2ccccc2s1` [Example 1691, (S)-azetidin-1-yl(4-(benzo[d]thiazol-2-yl)-6,7-dihydro-1H-imidazo[4,5-c]pyridin-5(4H)-yl)methanone], the AC50 (24 hrs compound incubation) was under 500 nM.
For `CC(C)(O)c1nc(C(=O)N2CCc3[nH]cnc3C2c2nc3c(F)cccc3s2)no1` (stereo not shown), for the setting “24 hrs with compound”, the AC50 was over 5000 nM.
`COC1CN(C(=O)N2CCc3[nH]cnc3C2c2nc3ccccc3s2)C1` (stereo not shown): where the note is “24 hrs with compound”, the AC50 lay in the range of 1000 to 5000 nM.
Consider `Cc1nc(C(C)(C)N(C)C)oc1C(=O)N1CCc2[nH]cnc2[C@@H]1c1nc2c(F)cccc2s1` [Example 2050, (R)-(2-(2-(dimethylamino)propan-2-yl)-4-methyloxazol-5-yl)(4-(4-fluorobenzo[d]thiazol-2-yl)-6,7-dihydro-1H-imidazo[4,5-c]pyridin-5(4H)-yl)methanone], for which, where the note is “24 hrs compound incubation”, the AC50 is 1000 to 5000 nM.
For `O=C(c1oc(CCC2CC2)nc1C(F)(F)F)N1CCCc2[nH]cnc2[C@@H]1c1nc2ccccc2s1` [Example 2136, (R)-(4-(benzo[d]thiazol-2-yl)-7,8-dihydroimidazo[4,5-c]azepin-5(1H,4H,6H)-yl)(2-(2-cyclopropylethyl)-4-(trifluoromethyl)oxazol-5-yl)methanone], the AC50 (24 hrs compound incubation) was in the range of 500 to 1000 nM.
Regarding `O=C(c1nc(Cl)cs1)N1CCc2[nH]cnc2[C@@H]1c1nc2ccc(Br)cc2[nH]1` [Example 950, (R)-(4-(6-bromo-1H-benzo[d]imidazol-2-yl)-6,7-dihydro-1H-imidazo[4,5-c]pyridin-5(4H)-yl)(4-chlorothiazol-2-yl)methanone], where the note is “24 hrs compound incubation”, the AC50 fell in the range of 1000 to 5000 nM.
Regarding `O=C(c1cnc(-c2c(F)cccc2F)s1)N1CCc2[nH]cnc2[C@@H]1c1nc2ccccc2s1` [Example 1510, (R)-(4-(benzo[d]thiazol-2-yl)-6,7-dihydro-1H-imidazo[4,5-c]pyridin-5(4H)-yl)(2-(2,6-difluorophenyl)thiazol-5-yl)methanone], under “24 hrs compound incubation”, the concentration at half-maximal activity (AC50) is under 500 nM.
In the case of `N#Cc1nc(N2CCC(F)CC2)oc1C(=O)N1CCc2[nH]cnc2[C@H]1c1nc2ccccc2s1` [Example 1651, (S)-5-(4-(benzo[d]thiazol-2-yl)-4,5,6,7-tetrahydro-1H-imidazo[4,5-c]pyridine-5-carbonyl)-2-(4-fluoropiperidin-1-yl)oxazole-4-carbonitrile], the AC50 (24 hrs compound incubation) was 500 to 1000 nM.
As for `CC(F)c1nc(C(F)F)c(C(=O)N2CCc3[nH]cnc3[C@H]2c2nc3c(F)cccc3s2)o1` (single isomer, unassigned) [Example 2075], the AC50 (24 hrs compound incubation) is under 500 nM.
With `O=C(c1ocnc1C1CC1)N1CCc2[nH]cnc2[C@H]1c1nc2ccccc2s1` [Example 1327], the AC50 (24 hrs compound incubation) was under 500 nM.
As for `Cc1nc(C(C)C)oc1C(=O)N1CCc2[nH]cnc2[C@@H]1c1nc2ccccc2s1` [Example 1398, (R)-(4-(benzo[d]thiazol-2-yl)-6,7-dihydro-1H-imidazo[4,5-c]pyridin-5(4H)-yl)(2-isopropyl-4-methyloxazol-5-yl)methanone], the AC50 (24 hrs compound incubation) is 1000 to 5000 nM.
Take `O=C(c1nc(Cl)cs1)N1CCc2[nH]cnc2[C@@H]1c1nc2cccc(F)c2s1` [Example 1264, (R)-(4-chlorothiazol-2-yl)(4-(7-fluorobenzo[d]thiazol-2-yl)-6,7-dihydro-1H-imidazo[4,5-c]pyridin-5(4H)-yl)methanone]: the AC50 (24 hrs compound incubation) is 1000 to 5000 nM.
In the case of `O=C(c1ncco1)N1CCc2[nH]cnc2[C@H]1c1nc2ccccc2[nH]1` [(S)-(4-(1H-benzo[d]imidazol-2-yl)-1,4,6,7-tetrahydro-5H-imidazo[4,5-c]pyridin-5-yl)(oxazol-2-yl)methanone], the AC50 (24 hrs with compound) was 1000 to 5000 nM.
Consider `C[C@@H]1CN(C(=O)c2nnc(-c3ccccn3)o2)[C@H](c2nc3ccccc3s2)c2nc[nH]c21` [Example 1588, ((4S,7R)-4-(benzo[d]thiazol-2-yl)-7-methyl-6,7-dihydro-1H-imidazo[4,5-c]pyridin-5(4H)-yl)(5-(pyridin-2-yl)-1,3,4-oxadiazol-2-yl)methanone], for which the AC50 (24 hrs compound incubation) fell in the range of 500 to 1000 nM.
`N#Cc1ccn2ncc(C(=O)N3CCc4[nH]cnc4C3c3nc4ccc(Cl)cc4[nH]3)c2c1` (stereo not shown): the AC50 (24 hrs with compound) is over 5000 nM.
In the case of `O=C(CC1CC1(F)F)N1CCc2[nH]cnc2[C@H]1c1nc2ccccc2s1` (single isomer, unassigned) [Example 1271], the AC50 (24 hrs compound incubation) is under 500 nM.
Same read-out and setting: for `Nc1cc(C(=O)N2CCc3[nH]cnc3[C@@H]2c2nc3c(F)cccc3s2)n(C(F)F)n1` [Example 2054, (R)-(3-amino-1-(difluoromethyl)-1H-pyrazol-5-yl)(4-(4-fluorobenzo[d]thiazol-2-yl)-6,7-dihydro-1H-imidazo[4,5-c]pyridin-5(4H)-yl)methanone] the value was over 5000 nM.
With `CC(C)(O)c1cc(C(=O)N2CCc3[nH]cnc3C2c2nc3c(F)cccc3s2)no1` (stereo not shown), under “24 hrs with compound”, the half-maximal activity concentration (AC50) was 1000 to 5000 nM.
On to `O=C(c1cncs1)N1CCc2[nH]cnc2C1c1nc2ccc(Cl)cc2[nH]1` (stereo not shown), for which the AC50 (24 hrs with compound) is 1000 to 5000 nM.
Regarding `O=C(c1nnc(-c2cnn(CC(F)F)c2)o1)N1CCc2[nH]cnc2[C@@H]1c1nc2c(F)cccc2s1` [Example 1881, (R)-(5-(1-(2,2-difluoroethyl)-1H-pyrazol-4-yl)-1,3,4-oxadiazol-2-yl)(4-(4-fluorobenzo[d]thiazol-2-yl)-6,7-dihydro-1H-imidazo[4,5-c]pyridin-5(4H)-yl)methanone], the AC50 (24 hrs compound incubation) lay within 1000 to 5000 nM.
In the case of `O=C(c1nnc(-c2cnn(C(F)F)c2)o1)N1CCc2[nH]cnc2[C@H]1c1nc2ccccc2s1` [Example 1777], the AC50 (24 hrs compound incubation) was under 500 nM.
Take `[2H][C@@]1(c2nc3ccccc3s2)c2nc[nH]c2CCN1C(=O)c1cnc(-c2cnn(C)c2)s1` [Example 2157, [(4S)-4-(1,3-benzothiazol-2-yl)-4-deuterio-6,7-dihydro-1H-imidazo[4,5-c]pyridin-5-yl]-[2-(1-methylpyrazol-4-yl)thiazol-5-yl]methanone]: the AC50 (24 hrs compound incubation) was under 500 nM.
For the compound `Cc1ncc(C(=O)N2CCc3[nH]cnc3C2c2nc3ccccc3s2)s1` (stereo not shown), the AC50 (24 hrs with compound) lay in the range of 1000 to 5000 nM.
`COc1ccn2ncc(C(=O)N3CCc4[nH]cnc4[C@@H]3c3nc4ccccc4s3)c2c1` [Example 1084, (R)-(4-(benzo[d]thiazol-2-yl)-6,7-dihydro-1H-imidazo[4,5-c]pyridin-5(4H)-yl)(5-methoxypyrazolo[1,5-a]pyridin-3-yl)methanone]: under “24 hrs compound incubation”, the AC50 lay in the range of 1000 to 5000 nM.
With `Cn1ncc(C(=O)N2CCc3[nH]cnc3[C@H]2c2nc3ccccc3s2)c1C(F)F` [Example 1819], where the note is “24 hrs compound incubation”, the AC50 was 500 to 1000 nM.
As for `CC(C)(c1nc(C(F)F)c(C(=O)N2CCc3[nH]cnc3[C@H]2c2nc3c(F)cccc3s2)o1)S(C)(=O)=O` [Example 2005], the AC50 (24 hrs compound incubation) was under 500 nM.
Consider `O=C(c1oc(-c2ccccn2)nc1C1CC1)N1CCc2[nH]cnc2[C@@H]1c1nc2c(F)cccc2s1` [Example 1536, (R)-(4-cyclopropyl-2-(pyridin-2-yl)oxazol-5-yl)(4-(4-fluorobenzo[d]thiazol-2-yl)-6,7-dihydro-1H-imidazo[4,5-c]pyridin-5(4H)-yl)methanone], for which the AC50 (24 hrs compound incubation) fell in the range of 1000 to 5000 nM.
In the case of `O=C(c1cn(-c2ccccn2)nc1Cl)N1CCc2[nH]cnc2[C@H]1c1nc2c(F)cccc2s1` [Example 1769], the AC50 (24 hrs compound incubation) fell in the range of 500 to 1000 nM.
In the case of `O=C(Nc1ccc(F)cc1)N1CCc2[nH]cnc2C1c1nc2ccccc2s1` (stereo not shown), the AC50 (24 hrs with compound) is over 5000 nM.
For `CC(C)(O)c1nc(C(F)(F)F)c(C(=O)N2CCc3[nH]cnc3[C@@H]2c2nc3ccccc3s2)o1` [Example 1554, (R)-(4-(benzo[d]thiazol-2-yl)-6,7-dihydro-1H-imidazo[4,5-c]pyridin-5(4H)-yl)(2-(2-hydroxypropan-2-yl)-4-(trifluoromethyl)oxazol-5-yl)methanone], the AC50 (24 hrs compound incubation) was under 500 nM.
For the compound `N#Cc1nc(N2CCC(F)CC2)oc1C(=O)N1CCc2[nH]cnc2[C@@H]1c1nc2ccccc2s1` [Example 1652, (R)-5-(4-(benzo[d]thiazol-2-yl)-4,5,6,7-tetrahydro-1H-imidazo[4,5-c]pyridine-5-carbonyl)-2-(4-fluoropiperidin-1-yl)oxazole-4-carbonitrile], the AC50 (24 hrs compound incubation) is over 5000 nM.
For the compound `CC(C)(O)c1nc(C(F)(F)F)c(C(=O)N2CCc3[nH]cnc3[C@H]2c2nc3ccccc3s2)o1` [Example 1553], the AC50 (24 hrs compound incubation) was under 500 nM.
Regarding `Cn1cc(C(F)(F)C(=O)N2CCc3[nH]cnc3[C@H]2c2nc3ccccc3s2)cn1` [Example 1555], the AC50 (24 hrs compound incubation) is 1000 to 5000 nM.
Regarding “(R)-(4-bromothiazol-5-yl)(4-(4-fluorobenzo[d]thiazol-2-yl)-6,7-dihydro-1H-imidazo[4,5-c]pyridin-5(4H)-yl)methanone [Example 1618]”, where the note is “24 hrs compound incubation”, the AC50 lay in the range of 500 to 1000 nM.
